Results as given in the supplement of paper PMC8149375.

Experiments:
Conditions in all cases: treatment: drug alone; 5 days
SN12C [1] = assay: minimum viability across doses, drug alone, relative to DMSO (fraction); higher = less growth inhibition
Description: (§1)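 Primary HTS: 8 RCC cell lines treated with 8 doses (up to 10 uM) of each library drug alone for 5 days; viability read by CellTiter-Glo and normalised to DMSO. GI50 was fitted with XLfit (4-parameter), AUC is the area under the dose-response curve, and minimum viability is the lowest fraction of DMSO viability across doses.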

A498 [2] = assay: as above
Description: as §1

769-P [3] = assay: as above
Description: as §1

TK-10 [4] = assay: as above
Description: as §1

CAKI-1 [5] = assay: as above
Description: as §1

UO-31 [6] = assay: as above
Description: as §1

786-O [7] = assay: as above
Description: as §1

ACHN [8] = assay: as above
Description: as §1

SN12C [9] = assay: GI50, drug alone; higher = less potent
Description: as §1

A498 [10] = assay: GI50, drug alone; higher = less potent
Description: as §1

769-P [11] = assay: GI50, drug alone; higher = less potent
Description: as §1

TK-10 [12] = assay: GI50, drug alone; higher = less potent
Description: as §1

CAKI-1 [13] = assay: GI50, drug alone; higher = less potent
Description: as §1

UO-31 [14] = assay: GI50, drug alone; higher = less potent
Description: as §1

786-O [15] = assay: GI50, drug alone; higher = less potent
Description: as §1

ACHN [16] = assay: GI50, drug alone; higher = less potent
Description: as §1

SN12C [17] = assay: AUC of dose-response viability curve, drug alone (arbitrary (AUC of normalised viability)); higher = less growth inhibition
Description: as §1

A498 [18] = assay: as above
Description: as §1

769-P [19] = assay: as above
Description: as §1

TK-10 [20] = assay: as above
Description: as §1

CAKI-1 [21] = assay: as above
Description: as §1

UO-31 [22] = assay: as above
Description: as §1

786-O [23] = assay: as above
Description: as §1

ACHN [24] = assay: as above
Description: as §1

| GI50, drug alone (786-O [15]) [nM] | GI50, drug alone (ACHN [16]) [nM] | SMILES | minimum viability across doses (SN12C [1]) | minimum viability across doses (A498 [2]) | minimum viability across doses (769-P [3]) | minimum viability across doses (TK-10 [4]) | minimum viability across doses (CAKI-1 [5]) | minimum viability across doses (UO-31 [6]) | minimum viability across doses (786-O [7]) | minimum viability across doses (ACHN [8]) | GI50, drug alone (SN12C [9]) [nM] | GI50, drug alone (A498 [10]) [nM] | GI50, drug alone (769-P [11]) [nM] | GI50, drug alone (TK-10 [12]) [nM] | GI50, drug alone (CAKI-1 [13]) [nM] | GI50, drug alone (UO-31 [14]) [nM] | AUC of dose-response viability curve (SN12C [17]) | AUC of dose-response viability curve (A498 [18]) | AUC of dose-response viability curve (769-P [19]) | AUC of dose-response viability curve (TK-10 [20]) | AUC of dose-response viability curve (CAKI-1 [21]) | AUC of dose-response viability curve (UO-31 [22]) | AUC of dose-response viability curve (786-O [23]) | AUC of dose-response viability curve (ACHN [24]) |
| --- | --- | --- | --- | --- | --- | --- | --- | --- | --- | --- | --- | --- | --- | --- | --- | --- | --- | --- | --- | --- | --- | --- | --- | --- |
| > 10000 | 5640 | COc1ccc(C2=NC(c3ccc(Cl)cc3)C(c3ccc(Cl)cc3)N2C(=O)N2CCNC(=O)C2)c(OC(C)C)c1 (centres undefined) [Nutlin-3] | 0.846 | 0.914 | 0.677 | 0.805 | 0.383 | 0.99 | 0.756 | 0.278 | > 10000 | > 10000 | > 10000 | > 10000 | 8040 | > 10000 | 3.31 | 3.9 | 3.42 | 2.99 | 3.34 | 4.29 | 3.29 | 2.82 |
| 1660 | 1910 | COc1cccc2cc(-c3nc([C@H]4CC[C@H](C(=O)O)CC4)n4ncnc(N)c34)[nH]c12 [OSI-027] | 0.168 | 0.148 | 0.408 | 0.191 | 0.0475 | 0.00484 | 0.185 | 0.105 | 2390 | 9270 | 8490 | 1930 | 1170 | 2520 | 2.77 | 3.75 | 3.12 | 2.64 | 2.58 | 3.1 | 2.49 | 2.85 |
| 101 | 827 | C#Cc1cccc(Nc2ncnc3cc(OCCOC)c(OCCO)cc23)c1.Cl [OSI-420 (Desmethyl Erlotinib)] | 0.6 | 0.92 | 0.36 | 0.416 | 0.159 | 0.906 | 0.443 | 0.101 | > 10000 | > 10000 | 3590 | 2420 | 3010 | > 10000 | 2.95 | 3.79 | 2.69 | 2.29 | 2.79 | 3.38 | 2.49 | 2.38 |
| 7470 | 5420 | O=C(Nc1ccc(OC(F)(F)F)cc1)c1sccc1NCc1ccnc2ccccc12 [OSI-930] | 0.158 | 0.722 | 0.871 | 0.572 | 0.264 | 0.173 | 0.372 | 0.175 | 8320 | > 10000 | > 10000 | > 10000 | 8110 | 1350 | 3.5 | 3.58 | 3.39 | 3.23 | 3.63 | 3.46 | 2.81 | 3.25 |
| 7.53 | 81.1 | COC1=CC(c2cc3ccccc3[nH]2)=N/C1=C\c1[nH]c(C)cc1C.CS(=O)(=O)O [Obatoclax mesylate (GX15-070)] | 0.00313 | 0.00496 | 0.0323 | 0.17 | 0.011 | 0.00526 | 0.0051 | 0.0118 | 213 | 438 | 309 | 185 | 379 | 158 | 1.74 | 1.95 | 2.01 | 1.79 | 2.23 | 2.07 | 0.668 | 1.41 |
| 610 | 740 | C=CCc1cccc(/C=N/NC(=O)CN2CCN(Cc3ccccc3)CC2)c1O [PAC-1] | 0.138 | 0.368 | 0.0295 | 0.0835 | 0.117 | 0.0166 | 0.00713 | 0.0162 | 3350 | 8780 | 2320 | 1620 | 3230 | 1700 | 3.01 | 3.43 | 2.94 | 2.69 | 3.2 | 3.29 | 2.18 | 2.23 |

Second part, the molecule before the results:

| SMILES | GI50, drug alone (786-O [15]) [nM] | GI50, drug alone (ACHN [16]) [nM] | minimum viability across doses (SN12C [1]) | minimum viability across doses (A498 [2]) | minimum viability across doses (769-P [3]) | minimum viability across doses (TK-10 [4]) | minimum viability across doses (CAKI-1 [5]) | minimum viability across doses (UO-31 [6]) | minimum viability across doses (786-O [7]) | minimum viability across doses (ACHN [8]) | GI50, drug alone (SN12C [9]) [nM] | GI50, drug alone (A498 [10]) [nM] | GI50, drug alone (769-P [11]) [nM] | GI50, drug alone (TK-10 [12]) [nM] | GI50, drug alone (CAKI-1 [13]) [nM] | GI50, drug alone (UO-31 [14]) [nM] | AUC of dose-response viability curve (SN12C [17]) | AUC of dose-response viability curve (A498 [18]) | AUC of dose-response viability curve (769-P [19]) | AUC of dose-response viability curve (TK-10 [20]) | AUC of dose-response viability curve (CAKI-1 [21]) | AUC of dose-response viability curve (UO-31 [22]) | AUC of dose-response viability curve (786-O [23]) | AUC of dose-response viability curve (ACHN [24]) |
| --- | --- | --- | --- | --- | --- | --- | --- | --- | --- | --- | --- | --- | --- | --- | --- | --- | --- | --- | --- | --- | --- | --- | --- | --- |
| FC(F)(F)c1ccc(/C=C/c2nc(COc3ccc(CCCCn4ccnn4)cc3)co2)cc1 [Mubritinib (TAK 165)] | 32.9 | 116 | 0.0401 | 0.151 | 0.586 | 0.21 | 0.765 | 0.033 | 0.0382 | 0.125 | 42.9 | 154 | > 10000 | 147 | > 10000 | 58 | 1.14 | 2.12 | 2.86 | 1.78 | 2.96 | 1.39 | 1.04 | 1.78 |
| Nc1ncnc2c1c(-c1cccc(OCc3ccccc3)c1)cn2[C@H]1C[C@H](CN2CCCC2)C1 [NVP-ADW742] | 5940 | 3350 | 0.612 | 0.377 | 0.478 | 0.329 | 0.362 | 0.0137 | 0.19 | 0.275 | > 10000 | 9560 | > 10000 | 5260 | 6480 | 8260 | 3.2 | 3.59 | 3.14 | 2.63 | 3.01 | 3.24 | 2.71 | 2.38 |
| COc1ccc(-c2ccc3ncc4c(c3c2)n(-c2ccc(N3CCNCC3)c(C(F)(F)F)c2)c(=O)n4C)cn1.O=C(O)/C=C\C(=O)O [NVP-BGT226] | 12.9 | 14.9 | 0.00358 | 0.0133 | 0.00969 | 0.00394 | 0.00344 | 0.00819 | 0.00447 | 0.00135 | 15.8 | 29.1 | 36.2 | 20.2 | 27.2 | 11.3 | 0.857 | 1.21 | 1.22 | 0.903 | 1.03 | 0.578 | 0.728 | 0.785 |
| Cc1ccc(C(=O)Nc2cccc(C(F)(F)F)c2)cc1Nc1nc(-c2cccnc2)nc2c1cnn2C [NVP-BHG712] | 809 | 1900 | 0.0886 | 0.023 | 0.06 | 0.0678 | 0.0328 | 0.00612 | 0.00203 | 0.109 | 4560 | 8450 | 3810 | 1340 | 2450 | 8280 | 3.15 | 3.97 | 3.13 | 2.45 | 3.03 | 5.14 | 2.18 | 2.89 |
| Cl.Cl.Fc1cc(-c2cccc3ncc(-c4cnn(C5CCNCC5)c4)nc23)cc(F)c1CN1CCOCC1 [NVP-BSK805] | 3950 | 1600 | 0.331 | 0.0305 | 0.0465 | 0.212 | 0.0193 | 0.00823 | 0.00287 | 0.0296 | 7390 | 7770 | 5730 | 3400 | 2390 | 8510 | 2.87 | 3.8 | 3.09 | 2.63 | 2.74 | 4.15 | 2.23 | 2.62 |
| Cn1cc(-c2ccc3ncc(Cc4ccc5ncccc5c4)n3n2)cn1 [NVP-BVU972] | 589 | 1320 | 0.0229 | 0.0174 | 0.0466 | 0.12 | 0.0623 | 0.018 | 0.00923 | 0.0166 | 1400 | 2530 | > 10000 | 1300 | 1170 | 1400 | 2.75 | 3.94 | 3.07 | 2.58 | 2.77 | 4.11 | 2.24 | 2.78 |
| CNC(=O)c1ccccc1Nc1nc(Nc2ccc(N3CCOCC3)cc2OC)ncc1Cl [NVP-TAE226] | 52.8 | 962 | 0.295 | 0.703 | 0.29 | 0.102 | 0.0558 | 0.398 | 0.00915 | 0.102 | 5140 | > 10000 | 2760 | 551 | 1360 | 8150 | 2.95 | 4.76 | 2.93 | 2.12 | 2.64 | 3.21 | 1.15 | 2.43 |
| CN1C(=O)C(Cc2c[nH]c3ccccc23)NC1=S (centres undefined) [Necrostatin-1] | 28.3 | > 10000 | 0.868 | 0.888 | 0.968 | 0.729 | 0.916 | 1.01 | 0.334 | 0.79 | > 10000 | > 10000 | > 10000 | > 10000 | > 10000 | > 10000 | 3.29 | 4.28 | 3.6 | 2.91 | 3.5 | 4.83 | 2.03 | 2.99 |
| CCOc1cc2ncc(C#N)c(Nc3ccc(OCc4ccccn4)c(Cl)c3)c2cc1NC(=O)/C=C/CN(C)C [Neratinib (HKI-272)] | 756 | 77.1 | 0.315 | 0.894 | 0.0782 | 0.251 | 0.161 | 0.697 | 0.345 | 0.117 | 1350 | > 10000 | 1140 | 161 | 407 | > 10000 | 2.44 | 3.99 | 2.43 | 1.77 | 2.11 | 4.06 | 2.38 | 1.48 |
| Cc1cn(-c2cc(NC(=O)c3ccc(C)c(Nc4nccc(-c5cccnc5)n4)c3)cc(C(F)(F)F)c2)cn1 [Nilotinib (AMN-107)] | > 10000 | > 10000 | 0.877 | 0.788 | 0.93 | 0.56 | 0.763 | 0.654 | 0.827 | 0.797 | > 10000 | > 10000 | > 10000 | > 10000 | > 10000 | > 10000 | 3.37 | 4.05 | 3.46 | 2.96 | 3.76 | 4.08 | 3.8 | 3.32 |
